This note sets out measurements from ChEMBL document CHEMBL5034015, “Structure-Based Optimization of 3-Phenyl-N-(2-(3-phenylureido)ethyl)thiophene-2-sulfonamide Derivatives as Selective Mcl-1 Inhibitors” (J Med Chem, 2021).

In series [1] the test system is RS4-11. Put plainly: Induction of apoptosis in human RS4-11 cells assessed as late apoptotic cells at 20 uM measured after 24 hrs by Annexin V/7-AAD and MitoSense Red staining based flow cytometry analysis relative to control (reference value: 0.99 %). It is filed as functional.
Series [2] deals with RS4-11. Put plainly: Induction of apoptosis in human RS4-11 cells assessed as increase in cleaved PARP expression incubated for 48 hrs by western blot analysis. It is filed as functional, cell-based. A general note: Immunoblotting shows a protein as a band on a membrane.
The subject of series [3] is RS4-11. Put plainly: Antitumor activity against human RS4-11 cells xenografted in NOD/SCID mouse assessed as inhibition of tumor growth at 25 mg/kg, ip administered every 2 days for 22 days and measured every 3 days relative to control. Format: functional. The arrangement: scale not given: the % may be the effect or the level left. The following applies: time 22 day. On the technique in general: Xenograft models place foreign cells or tissue in a host animal.

A short description of series [4]: Toxicity in NOD/SCID mouse xenografted with human RS4-11 cells assessed as reduction in body weight at 12.5 to 50 mg/kg, ip administered every 2 days for 22 days. It is filed as organism-based. The following applies: in vivo, 528 h, dose 12.5-50 mg/kg, time 22 day.
In series [5] the test system is RS4-11. Put plainly: Induction of apoptosis in human RS4-11 cells assessed as increase in cleaved caspase 3 expression incubated for 48 hrs by western blot analysis. Format: functional, cell-based.
The target in series [6] is T1, Bcl-2-like protein 1 (Homo sapiens, UniProt Q07817). Put plainly: Binding affinity to full length human Bcl-xl expressed in Escherichia coli BL21 (DE3) at up to 100 uM preincubated for 30 mins followed by 5-FAM-QEDIIIINIARHLAQVGDSMD-RSIPPG tracer addition and measured after 20 mins by fluorescence polarization assay. The note with it: dose microM <=100, time 50.0 min.
T1 sequence (Q07817 whole entry): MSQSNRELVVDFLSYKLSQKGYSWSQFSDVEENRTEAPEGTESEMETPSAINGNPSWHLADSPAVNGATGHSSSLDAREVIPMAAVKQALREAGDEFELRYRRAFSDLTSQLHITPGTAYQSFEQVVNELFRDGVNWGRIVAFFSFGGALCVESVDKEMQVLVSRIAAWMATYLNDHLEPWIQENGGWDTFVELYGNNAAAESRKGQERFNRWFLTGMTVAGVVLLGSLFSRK

Series [7] relates to RS4-11. Put plainly: Induction of apoptosis in human RS4-11 cells assessed as viable cells at 20 uM measured after 24 hrs by Annexin V/7-AAD and MitoSense Red staining based flow cytometry analysis relative to control (reference value: 94.15 %). The following applies: read-out: Activity. It is filed as functional. Background: In flow cytometry, cells or beads pass a laser one at a time.

Series [8] concerns MCF7. Put plainly: Inhibition of Bcl-2/Bim interaction in human MCF7 cells assessed as disruption of Bcl-2/Bim complex at 10 uM measured after 24 hrs by co-immunoprecipitation based western blot analysis relative to control. It is filed as cell-based.
In series [9] the test system is RS4-11. Put plainly: Induction of apoptosis in human RS4-11 cells assessed as necrotic cells at 20 uM measured after 24 hrs by Annexin V/7-AAD and MitoSense Red staining based flow cytometry analysis relative to control (reference value: 1.11 %). It is filed as functional.
The test system of series [10] is RS4-11. Put plainly: Antitumor activity against human RS4-11 cells xenografted in NODSCID mouse assessed as inhibition of tumor growth at 12.5 mg/kg, ip administered every 2 days for 22 days and measured every 3 days relative to control. Set-up: scale not given: the % may be the effect or the level left. The following applies: time 22 day. Format: functional.
Series [11] deals with HL-60. Put plainly: cells. The following applies: Homo sapiens, HL-60, 48 h.
Description: Cytotoxicity against human HL-60 cells assessed as inhibition of cell growth incubated for 48 hrs by CCK8 assay
Series [12] has as its system HeLa. Put plainly: cells. The following applies: Homo sapiens, 48 h.
Description: Cytotoxicity against human HeLa cells assessed as inhibition of cell growth incubated for 48 hrs by CCK8 assay
Series [13] deals with RS4-11. Put plainly: Induction of apoptosis in human RS4-11 cells assessed as increase in cleaved caspase 9 expression incubated for 48 hrs by western blot analysis. Format: functional, cell-based.
In series [14] the target is T2, Induced myeloid leukemia cell differentiation protein Mcl-1 (Homo sapiens, UniProt Q07820). Put plainly: Binding affinity to full length human MCL1 expressed in Escherichia coli BL21 (DE3) assessed as inhibition constant preincubated for 30 mins followed by 5-FAM-QEDIIIINIARHLAQVGDSMD-RSIPPG tracer addition and measured after 20 mins by fluorescence polarization assay.
T2 sequence (Q07820 whole entry): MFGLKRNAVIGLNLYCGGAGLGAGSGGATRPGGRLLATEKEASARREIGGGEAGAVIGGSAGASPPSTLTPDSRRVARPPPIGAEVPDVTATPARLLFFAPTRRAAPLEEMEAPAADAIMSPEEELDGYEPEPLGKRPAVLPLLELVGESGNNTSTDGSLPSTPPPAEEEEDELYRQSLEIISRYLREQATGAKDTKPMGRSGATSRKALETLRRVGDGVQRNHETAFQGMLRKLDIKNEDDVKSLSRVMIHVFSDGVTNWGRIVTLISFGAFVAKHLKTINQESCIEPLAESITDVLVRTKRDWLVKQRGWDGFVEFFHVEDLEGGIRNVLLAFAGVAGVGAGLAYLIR

In series [15] the test system is RS4-11. Put plainly: Antitumor activity against human RS4-11 cells xenografted in NOD/SCID mouse assessed as reduction in tumor volume at 50 mg/kg, ip administered every 2 days for 22 days and measured every 3 days relative to control. Format: functional. The arrangement: scale not given: the % may be the effect or the level left. The following applies: time 22 day.

For series [16], the system named is RS4-11. Put plainly: Induction of apoptosis in human RS4-11 cells assessed as early apoptotic cells at 20 uM measured after 24 hrs by Annexin V/7-AAD and MitoSense Red staining based flow cytometry analysis relative to control (reference value: 3.75 %). It is filed as functional.
Series [17] relates to RS4-11. Put plainly: Antitumor activity against human RS4-11 cells xenografted in SCID mouse assessed as reduction in Ki-67 positive cells administered intraperitoneally for 19 days by immunohistochemical analysis. It is filed as functional, cell-based. The following applies: time 19.0 day.
In series [18] the target is Induced myeloid leukemia cell differentiation protein Mcl-1/Bcl-2-like protein 11 (Homo sapiens) (UniProt Q07820+O43521). Put plainly: Inhibition of MCL1/Bim interaction in human MCF7 cells assessed as disruption of MCL1/Bim complex at 10 uM measured after 24 hrs by co-immunoprecipitation based western blot analysis relative to control. Format: cell-based.
Sequence of Induced myeloid leukemia cell differentiation protein Mcl-1/Bcl-2-like protein 11 (Homo sapiens) (O43521 whole entry, looked up): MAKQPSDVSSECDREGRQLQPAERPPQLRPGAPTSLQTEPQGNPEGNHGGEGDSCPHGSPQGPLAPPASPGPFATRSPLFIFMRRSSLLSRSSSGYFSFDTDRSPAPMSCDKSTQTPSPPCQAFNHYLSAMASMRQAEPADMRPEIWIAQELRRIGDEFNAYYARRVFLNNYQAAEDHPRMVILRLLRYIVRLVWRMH
Sequence of Induced myeloid leukemia cell differentiation protein Mcl-1/Bcl-2-like protein 11 (Homo sapiens) (Q07820 whole entry, looked up): as the sequence (Q07820 whole entry) above
In series [19] the target is Apoptosis regulator Bcl-2 (Homo sapiens, UniProt P10415). Put plainly: Binding affinity to full length human Bcl-2 expressed in Escherichia coli BL21 (DE3) at up to 100 uM preincubated for 30 mins followed by 5-FAM-QEDIIIINIARHLAQVGDSMD-RSIPPG tracer addition and measured after 20 mins by fluorescence polarization assay. The note with it: dose microM <=100, time 50.0 min.
Sequence of Apoptosis regulator Bcl-2 (P10415 whole entry): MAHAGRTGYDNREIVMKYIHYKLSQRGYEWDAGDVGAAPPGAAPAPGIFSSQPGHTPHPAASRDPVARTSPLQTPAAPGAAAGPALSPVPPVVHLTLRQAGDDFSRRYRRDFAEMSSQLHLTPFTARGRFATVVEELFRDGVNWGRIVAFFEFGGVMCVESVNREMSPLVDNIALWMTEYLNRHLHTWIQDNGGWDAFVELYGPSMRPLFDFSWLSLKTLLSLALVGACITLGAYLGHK

Series [20] relates to HEK-293T. Put plainly: Cytotoxicity against HEK293T cells assessed as reduction in cell viability incubated for 48 hrs by CCK8 assay. The note with it: Homo sapiens.
The subject of series [21] is RS4-11. Put plainly: cells. The following applies: Homo sapiens, RS4-11, 48 h.
Description: Cytotoxicity against human RS4-11 cells assessed as inhibition of cell growth incubated for 48 hrs by CCK8 assay
In series [22] the target is T2, Induced myeloid leukemia cell differentiation protein Mcl-1. Put plainly: Binding affinity to full length human MCL1 expressed in Escherichia coli BL21 (DE3) at up to 100 uM preincubated for 30 mins followed by 5-FAM-QEDIIIINIARHLAQVGDSMD-RSIPPG tracer addition and measured after 20 mins by fluorescence polarization assay. The note with it: dose microM <=100, time 50.0 min.

Series [23] has as its system RS4-11. Put plainly: Induction of apoptosis in human RS4-11 cells assessed as necrotic cells at 1 uM measured after 24 hrs by Annexin V/7-AAD and MitoSense Red staining based flow cytometry analysis relative to control (reference value: 1.11 %). Format: functional.
Series [24] relates to RS4-11. Put plainly: Induction of apoptosis in human RS4-11 cells assessed as late apoptotic cells at 1 uM measured after 24 hrs by Annexin V/7-AAD and MitoSense Red staining based flow cytometry analysis relative to control (reference value: 0.99 %). Format: functional.
Series [25] relates to RS4-11. Put plainly: Induction of apoptosis in human RS4-11 cells assessed as early apoptotic cells at 1 uM measured after 24 hrs by Annexin V/7-AAD and MitoSense Red staining based flow cytometry analysis relative to control (reference value: 3.75 %). Format: functional.
In series [26] the test system is RS4-11. Put plainly: Induction of apoptosis in human RS4-11 cells assessed as viable cells at 1 uM measured after 24 hrs by Annexin V/7-AAD and MitoSense Red staining based flow cytometry analysis relative to control (reference value: 94.15 %). The following applies: read-out: Activity. Format: functional.
In series [27] the target is T1, Bcl-2-like protein 1. Put plainly: Inhibition of FITC-labeled BH3 peptide binding to Bcl-xl (unknown origin) expressed in Escherichia coli BL21 (DE3) incubated for 0.5 hrs by TR-FRET assay.
For series [28], the target named is T2, Induced myeloid leukemia cell differentiation protein Mcl-1. Put plainly: Binding affinity to 15N-labeled human MCL1 (172 to 327 residues) expressed in Escherichia coli BL21 (DE3) assessed as chemical shift at H224 residue at 0.3 mM incubated for 1 hr by 15N HSQC NMR spectroscopy analysis.
Series [29] has the same target. Put plainly: Binding affinity to 15N-labeled human MCL1 (172 to 327 residues) expressed in Escherichia coli BL21 (DE3) assessed as chemical shift at L235 residue at 0.3 mM incubated for 1 hr by 15N HSQC NMR spectroscopy analysis.
Series [30] has the same target. Put plainly: Binding affinity to 15N-labeled human MCL1 (172 to 327 residues) expressed in Escherichia coli BL21 (DE3) assessed as chemical shift at R263 residue at 0.3 mM incubated for 1 hr by 15N HSQC NMR spectroscopy analysis.
Series [31] has the same target. Put plainly: Binding affinity to 15N-labeled human MCL1 (172 to 327 residues) expressed in Escherichia coli BL21 (DE3) assessed as chemical shift at M231 residue at 0.3 mM incubated for 1 hr by 15N HSQC NMR spectroscopy analysis.
For series [32] the target is unchanged. Put plainly: Binding affinity to 15N-labeled human MCL1 (172 to 327 residues) expressed in Escherichia coli BL21 (DE3) assessed as chemical shift at M250 residue at 0.3 mM incubated for 1 hr by 15N HSQC NMR spectroscopy analysis.
Series [33] shares this target. Put plainly: Binding affinity to 15N-labeled human MCL1 (172 to 327 residues) expressed in Escherichia coli BL21 (DE3) assessed as chemical shift at F228 residue at 0.3 mM incubated for 1 hr by 15N HSQC NMR spectroscopy analysis.

Molecules are shown by their SMILES. pIC50, pKi: −log10 of the molar value. Activity calls are given as the source filed them. Unless noted, the rule behind the calls is not given here.

Consider `COc1ccc(Oc2cc(C)ccc2-c2ccsc2S(=O)(=O)NCCNC(=O)Nc2cc(C(F)(F)F)cc(C(F)(F)F)c2)cc1OC`, for which the Activity is 94.21% in [1]; “Dose-Dependent Effect” in [2]; more than 60% in [3]; “Non-Toxic” in [4]; “Dose-Dependent Effect” in series [5]; 0.24% in series [9]. In addition, the Activity in series [10] was more than 60%; in series [13], “Dose-Dependent Effect”; in [15], 75%; in series [16], 4.15%; in series [17], “Dose-Dependent Effect”. The outcome in series [6] and in series [19] was inactive. The viability at 20 µM in series [7] worked out at 1.39%. Moreover, the inhibition (usually how much of the control response was suppressed) in series [8] was “inactive”. In addition, the pIC50 (as a rule, −log10 of the IC50, conventionally taken in molar units) in [11] was 5.28; in [12] it was 4.99; in series [20], 5.05; in series [21], 5.25. For the same compound, the pKi – broadly, the Ki on a negative log10 scale, so that one unit is a factor of ten – in series [14] is 5.31. Besides, the inhibition in series [18] came out at 30%.

Consider `CC1(C)CCC(CN2CCN(c3ccc(C(=O)NS(=O)(=O)c4ccc(NCC5CCOCC5)c([N+](=O)[O-])c4)c(Oc4cnc5[nH]ccc5c4)c3)CC2)=C(c2ccc(Cl)cc2)C1` [VENETOCLAX], for which the Activity entry in [2] was “Dose-Dependent Effect”; in series [5], “Dose-Dependent Effect”; in [23] it was 0.26%; in series [24] it was 88.54%; in [13] it was “Dose-Dependent Effect”; in series [25], 10.75%. For the same compound, the result in [22] was inactive. For the same compound, the viability at 1 µM in [26] was 0.45%.

In turn, `Cc1cc(OCCCc2c3n(c4c(-c5c(C)nn(C)c5C)c(Cl)ccc24)CCCN(c2cc(C(=O)O)c4ccn(C)c4c2)C3=O)cc(C)c1Cl` showed a pKi in series [27] of less than 5.00.

Consider `Cc1ccc(-c2ccsc2S(=O)(=O)NCCNC(=O)Nc2cc(C(F)(F)F)cc(C(F)(F)F)c2)c(Oc2ccc(O)c(O)c2)c1`, for which the figures for the Activity in series [1], in [9] and in [16] were 75.04%, 3.19% and 12.98%, respectively. The result in series [28], in series [29], in series [30], in series [31], in [32] and in series [33] was Active. Also, the result in [6] and in series [19] was inactive. For the same compound, in series [7], the viability at 20 µM was 8.79%. The inhibition result in series [8] is “inactive”. For the same compound, the pIC50 in [11] is 5.43; in [12] it was 5.01; in [20] it was less than 4.70; in series [21], 5.25. Also, the inhibition in series [18] came out at 70%.
